According to paper PMC12310023 (PLOS Neglected Tropical Diseases, 2025):
pIC50: −log10 of the molar value.

Legend:
[1] = target: T1, CYP2C8 (Homo sapiens, UniProt P10632); experiment: CYP reaction phenotyping, recombinant supersomes
T1 sequence (P10632 1-490): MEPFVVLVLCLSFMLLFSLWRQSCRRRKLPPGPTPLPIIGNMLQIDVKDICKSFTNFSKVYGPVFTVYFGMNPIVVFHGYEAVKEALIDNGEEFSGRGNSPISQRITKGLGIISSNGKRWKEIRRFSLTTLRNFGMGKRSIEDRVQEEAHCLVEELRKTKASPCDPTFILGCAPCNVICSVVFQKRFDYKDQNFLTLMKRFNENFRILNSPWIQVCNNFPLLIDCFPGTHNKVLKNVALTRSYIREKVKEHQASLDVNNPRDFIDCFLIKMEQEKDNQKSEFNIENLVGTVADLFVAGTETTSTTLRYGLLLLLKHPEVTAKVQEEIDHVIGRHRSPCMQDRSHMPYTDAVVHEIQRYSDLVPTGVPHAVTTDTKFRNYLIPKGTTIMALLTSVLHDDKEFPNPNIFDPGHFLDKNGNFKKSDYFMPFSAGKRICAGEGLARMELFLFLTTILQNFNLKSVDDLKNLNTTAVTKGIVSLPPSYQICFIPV

[2] = Dog PK (r10 PO 1, r11 IV 1, r12-r14 PO 3, 10, 30 mg/kg); format: in vivo; conditions: after BKI-1708 PO 1 mg/kg
[3] = tested on: panel of 71 common liability targets; experiment: Cerep panel of 71 common liability targets; format: binding; conditions: read-out: IC50s, all Cerep targets except AT2
[4] = target: PKD3 (Homo sapiens, UniProt O94806); experiment: Kinome profiling; format: biochemical
[5] = target: CYP2D6 (Homo sapiens, UniProt P10635); experiment: CYP reaction phenotyping, recombinant supersomes
[6] = Hepatocyte stability; conditions: mouse
[7] = tested on: NLuc-expressing C. parvum; experiment: NLuc C. parvum IFNγ-KO mouse infection model, oocyst shedding; format: in vivo
[8] = tested on: CYP1A1; experiment: CYP Induction Assay in dog hepatocytes; conditions: 30 and 100 μM, 48 h
[9] = target: T2, 5-HT2B (Homo sapiens, UniProt P41595); experiment: Cerep binding assay; conditions: agonist radioligand, mean, read-out: % inhibition of control specific binding
T2 construct: Cerep (Eurofins, France)

[10] = target: CYP2C9 (Homo sapiens, UniProt P11712); experiment: in vitro; conditions: recombinant CYP2C9 supersomes
Sequence of CYP2C9 (P11712 whole entry): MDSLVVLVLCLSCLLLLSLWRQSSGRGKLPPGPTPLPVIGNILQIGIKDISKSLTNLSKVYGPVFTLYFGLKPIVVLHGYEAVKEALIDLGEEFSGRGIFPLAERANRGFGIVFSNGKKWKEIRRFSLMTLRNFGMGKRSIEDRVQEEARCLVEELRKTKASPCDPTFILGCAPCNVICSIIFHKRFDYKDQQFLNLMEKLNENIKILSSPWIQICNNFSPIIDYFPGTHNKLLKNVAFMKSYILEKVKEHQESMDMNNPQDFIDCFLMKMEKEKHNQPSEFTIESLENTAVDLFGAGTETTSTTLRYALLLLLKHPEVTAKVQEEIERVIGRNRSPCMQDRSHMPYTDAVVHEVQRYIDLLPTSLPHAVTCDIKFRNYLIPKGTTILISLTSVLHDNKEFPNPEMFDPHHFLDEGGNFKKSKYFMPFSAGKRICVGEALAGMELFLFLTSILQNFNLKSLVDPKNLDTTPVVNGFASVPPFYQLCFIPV

Sequence of CYP2D6 (P10635 whole entry): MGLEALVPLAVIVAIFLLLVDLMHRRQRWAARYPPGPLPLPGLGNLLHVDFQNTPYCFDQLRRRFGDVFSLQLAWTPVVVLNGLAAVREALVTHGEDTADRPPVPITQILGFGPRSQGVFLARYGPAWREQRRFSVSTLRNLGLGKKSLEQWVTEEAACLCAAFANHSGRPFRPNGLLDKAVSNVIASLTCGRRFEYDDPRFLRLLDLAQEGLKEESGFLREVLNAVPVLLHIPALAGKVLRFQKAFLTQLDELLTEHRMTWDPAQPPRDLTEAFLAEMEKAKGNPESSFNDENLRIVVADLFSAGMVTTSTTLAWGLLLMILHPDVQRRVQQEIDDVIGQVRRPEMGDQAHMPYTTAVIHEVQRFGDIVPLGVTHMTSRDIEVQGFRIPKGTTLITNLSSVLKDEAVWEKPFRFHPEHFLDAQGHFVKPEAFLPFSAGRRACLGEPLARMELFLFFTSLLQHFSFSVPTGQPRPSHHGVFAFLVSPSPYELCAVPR
Sequence of PKD3 (O94806 whole entry): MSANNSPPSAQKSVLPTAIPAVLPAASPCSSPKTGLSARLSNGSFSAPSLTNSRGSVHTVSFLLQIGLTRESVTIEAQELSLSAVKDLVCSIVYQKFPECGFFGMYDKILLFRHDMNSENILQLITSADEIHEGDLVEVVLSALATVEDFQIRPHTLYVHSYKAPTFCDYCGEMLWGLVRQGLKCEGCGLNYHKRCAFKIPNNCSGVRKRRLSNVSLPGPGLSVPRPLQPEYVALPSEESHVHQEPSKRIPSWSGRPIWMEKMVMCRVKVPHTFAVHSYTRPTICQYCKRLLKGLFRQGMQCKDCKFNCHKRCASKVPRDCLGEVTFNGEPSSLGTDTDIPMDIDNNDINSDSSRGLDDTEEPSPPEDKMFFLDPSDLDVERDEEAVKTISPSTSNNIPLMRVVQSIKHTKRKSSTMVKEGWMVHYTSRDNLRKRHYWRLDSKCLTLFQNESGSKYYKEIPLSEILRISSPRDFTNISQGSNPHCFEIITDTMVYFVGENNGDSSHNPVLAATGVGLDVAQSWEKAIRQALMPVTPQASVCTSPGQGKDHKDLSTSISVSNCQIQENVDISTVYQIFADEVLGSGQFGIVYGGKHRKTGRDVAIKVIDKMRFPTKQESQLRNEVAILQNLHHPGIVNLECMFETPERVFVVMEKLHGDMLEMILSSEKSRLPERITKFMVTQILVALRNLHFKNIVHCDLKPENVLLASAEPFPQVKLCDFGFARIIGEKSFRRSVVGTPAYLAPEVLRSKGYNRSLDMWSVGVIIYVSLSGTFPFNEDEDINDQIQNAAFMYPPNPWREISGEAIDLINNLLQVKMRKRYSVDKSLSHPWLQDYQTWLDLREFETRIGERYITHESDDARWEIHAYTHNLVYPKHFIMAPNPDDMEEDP
T2 sequence (P41595 whole entry): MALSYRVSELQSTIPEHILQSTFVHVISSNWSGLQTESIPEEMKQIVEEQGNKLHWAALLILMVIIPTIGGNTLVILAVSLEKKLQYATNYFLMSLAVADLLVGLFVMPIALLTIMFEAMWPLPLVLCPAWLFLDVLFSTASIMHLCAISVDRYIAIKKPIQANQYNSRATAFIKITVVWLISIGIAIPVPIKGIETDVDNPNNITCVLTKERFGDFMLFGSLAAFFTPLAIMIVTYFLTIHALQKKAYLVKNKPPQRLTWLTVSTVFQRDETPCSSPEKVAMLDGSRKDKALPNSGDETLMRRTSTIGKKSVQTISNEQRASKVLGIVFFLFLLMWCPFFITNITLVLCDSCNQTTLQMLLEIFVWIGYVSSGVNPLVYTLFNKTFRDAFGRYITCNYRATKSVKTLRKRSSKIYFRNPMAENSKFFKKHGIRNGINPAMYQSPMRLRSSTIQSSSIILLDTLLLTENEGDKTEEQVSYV

With `CC1(C)Cn2nc(-c3ccc4cc(OC5CC5)ccc4c3)c(C(N)=O)c2NC1O` (stereo not drawn) [M2] the “% contribution” value [1] was 0.0%, the CLint [1] was <0.029 µL/min/pmol and the “M2 AUC0-inf” value [2] was 196 ± 12 µmol·min/L. The pIC50 [3] was < 5.00, the pIC50 [4] was 6.64 and the “% contribution” value [5] was 0.0%. For the same compound, the CLint [5] was <0.029 µL/min/pmol, the “LM:hepatocyte CLint_scaled ratio” value ([6]; liver microsomes and primary hepatocytes) was 1.7 and the CLint scaled ([6]; primary hepatocytes) was 45 mL/min/kg. The half-life ([6]; primary hepatocytes) was 4.37 h, the hepatocyte CLint ([6]; primary hepatocytes) was 5.3 µL/min/1e6 cells and the “day p.i. oocyst shedding reached LoD” value ([7]; M2 8 mg/kg x 3 days PO) was 17 days. For the same compound, the “day p.i. oocyst shedding below LoD” value ([7]; M2 15 mg/kg x 3 days PO) was ≤ 10 days, the “day p.i. oocyst shedding below LoD” value ([7]; M2 30 mg/kg x 3 days PO) was ≤ 10 days and the “induction of CYP1A1” value [8] was “strong inducers”. For the same compound, the inhibition at 10 µM [9] was 57.1%, the CLint scaled [10] was < 1.78 mL/min/kg and the half-life [10] was > 4 h.
